Laboratory results reported in paper PMC12592400, “A unique inhibitor conformation selectively targets the DNA polymerase PolC of Gram-positive priority pathogens” (Nature Communications, 2025).
Where “and” joins values, the source holds several entries; their conditions need not be identical. Equal values may be shown once.

Experiments:
[1] = target: T1, E. faecium PolC^F1276L (exonuclease-inactivated) (Enterococcus faecium, UniProt A0A9X4B319, D429A/E431A/F1274L); assay: Real-time DNA primer extension assay; assay type: biochemical; details: for rate of activity (slope of fluorescence intensity change over time): Fig. 4b source data, F1276L
T1 sequence (A0A9X4B319 1-1450 D429A/E431A/F1274L): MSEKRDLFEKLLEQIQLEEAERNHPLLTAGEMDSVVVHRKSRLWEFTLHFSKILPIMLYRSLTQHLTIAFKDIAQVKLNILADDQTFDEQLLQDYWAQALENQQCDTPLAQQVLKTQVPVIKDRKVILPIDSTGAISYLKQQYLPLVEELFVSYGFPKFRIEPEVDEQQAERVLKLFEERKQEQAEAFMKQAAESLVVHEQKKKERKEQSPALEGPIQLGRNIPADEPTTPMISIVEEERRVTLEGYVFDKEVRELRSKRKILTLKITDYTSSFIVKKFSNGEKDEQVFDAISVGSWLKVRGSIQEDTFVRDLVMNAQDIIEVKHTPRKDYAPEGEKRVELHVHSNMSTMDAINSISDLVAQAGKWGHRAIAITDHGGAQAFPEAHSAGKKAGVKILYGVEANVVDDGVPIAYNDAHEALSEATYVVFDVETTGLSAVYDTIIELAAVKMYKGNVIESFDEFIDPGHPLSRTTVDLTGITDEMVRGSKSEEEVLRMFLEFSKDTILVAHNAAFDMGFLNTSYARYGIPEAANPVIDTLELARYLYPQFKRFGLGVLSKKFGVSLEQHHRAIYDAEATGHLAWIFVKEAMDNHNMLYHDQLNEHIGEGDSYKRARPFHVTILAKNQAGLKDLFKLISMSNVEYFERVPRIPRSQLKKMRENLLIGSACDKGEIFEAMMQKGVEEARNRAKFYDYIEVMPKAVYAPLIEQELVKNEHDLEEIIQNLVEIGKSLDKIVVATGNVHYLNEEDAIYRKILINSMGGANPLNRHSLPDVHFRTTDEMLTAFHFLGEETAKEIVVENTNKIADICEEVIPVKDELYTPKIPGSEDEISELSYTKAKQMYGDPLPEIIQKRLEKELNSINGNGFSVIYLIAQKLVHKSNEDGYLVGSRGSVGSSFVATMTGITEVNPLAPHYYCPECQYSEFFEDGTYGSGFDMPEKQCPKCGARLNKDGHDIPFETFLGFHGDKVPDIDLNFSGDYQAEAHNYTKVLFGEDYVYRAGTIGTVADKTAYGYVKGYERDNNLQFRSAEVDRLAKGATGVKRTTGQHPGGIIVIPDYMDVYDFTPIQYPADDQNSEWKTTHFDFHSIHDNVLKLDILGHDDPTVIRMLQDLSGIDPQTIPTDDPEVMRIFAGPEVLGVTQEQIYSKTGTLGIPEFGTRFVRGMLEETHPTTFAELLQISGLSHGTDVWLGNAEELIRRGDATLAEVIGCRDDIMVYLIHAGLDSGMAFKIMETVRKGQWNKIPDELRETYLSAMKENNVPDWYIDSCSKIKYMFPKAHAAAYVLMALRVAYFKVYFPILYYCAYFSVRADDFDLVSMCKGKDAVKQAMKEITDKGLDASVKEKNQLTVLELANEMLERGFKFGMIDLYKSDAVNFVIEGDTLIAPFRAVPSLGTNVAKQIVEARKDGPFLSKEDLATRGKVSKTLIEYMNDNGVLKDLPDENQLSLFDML
Source text: (§1) The genes for PolC (locus_tag: MIBBHLJO_01574) and DnaE (locus_tag: MIBBHLJO_00911) from E. faecium ATCC 700221 were codon-optimized for expression in E. coli and synthesized in vector pET28b by Twist Bioscience (San Francisco, CA). Expression constructs for variant PolC proteins were created with QuikChange Site-Directed Mutagenesis (Agilent) with oligonucleotides listed in Supplementary Table 3. F1276L, F1276S, and A1281T were introduced to assess the effect of these mutations on inhibition by ACX compounds. Mutations D972A and D974A were introduced to inactivate the polymerase activity and mutations D431A and E433A were introduced to inactivate the exonuclease activity (Fig. 1d, Supplementary Fig. 1).
(§2) Polymerase activity was monitored in real-time[31],[32] with a 42-nt long 5’ carboxyfluorescein-labelled DNA oligonucleotide template strand (DNASP8_42) annealed to a 30-nt primer oligonucleotide (oMU014). Polymerase activity in this assay is monitored by measuring fluorescence quenching of the labelled DNA template as a result of primer extension by PolC (for details see Supplementary Fig. 1b, c). Both primers were HPLC purified. Primer extension assays were performed in Reaction Buffer (see Gel-based polymerase and exonuclease assays) supplemented with 0.5 mg/mL BSA, 0.05% Tween20 and 25 uM of each dNTP (SRB) in 384-well Black Round Bottom plates (Corning 4514). The polymerase was diluted in the SRB and incubated for at least 5 min in the presence of inhibitor or solvent, with a final solvent concentration of 1%. The reaction was initiated by the addition of an equal volume of DNA substrate in SRB as described below. Fluorescence emission data was collected with a BMG Labtech PHERAstar FSX reader for 30 min at room temperature.
(§3) Compounds were dispensed with an Echo acoustic liquid handler (Beckman Coulter). All compounds were dissolved to 1 mM and 10 mM stocks in 100% DMSO and transferred to Echo LDV or PP source plates (Labcyte, Inc., CA), then dispensed to 384-well plates with a Labcyte Echo550 or Echo650 acoustic dispenser at volumes of 2.5 to 100 nL per well. […] A Mantis microfluidic liquid dispenser (Formulatrix) was used to dispense 5 µL polymerase and 5 µL substrate DNA (individually diluted in SRB) per well. […] The final concentration of DNA was 70 nM.
(§4) Data were analysed and standard error of the means (SEM) determined in Prism 8.4.2 and 10.2.3 (GraphPad). Raw time-course polymerase activity was plotted against time, with SEM of triplicates determined. The rate of activity (represented by signal quenching) was determined during the first 8 min (linear stage) by calculating the slope of fluorescence intensity change (converted to a positive value) over time (in seconds). The slopes were then normalized to percentage activity (%); per ‘replicate range’, 100% activity was defined as polymerase activity in the absence of inhibitor (polymerase control), and 0% activity was determined in the absence of polymerase (DNA signal; negative control). The SEM was determined between ‘replicate ranges’. The IC50 was determined using the dose-response (inhibition) nonlinear regression ‘[Inhibitor] vs. response (three parameters)’ without constraints.

[2] = system: E. faecium PolC^F1276L (exonuclease-inactivated); assay: Real-time DNA primer extension assay; assay type: biochemical, Enterococcus faecium; details: versus wild-type PolC
Source text: as §1, §2, §3, §4

Compound	IC50 [1] [µM]	rate of activity (slope of fluorescence intensity change over time) ([1]; inhibitor 4 uM)	rate of activity (slope of fluorescence intensity change over time) ([1]; inhibitor 5.75 uM)	rate of activity (slope of fluorescence intensity change over time) ([1]; inhibitor 8.8 uM)	rate of activity (slope of fluorescence intensity change over time) ([1]; inhibitor 20 uM)	rate of activity (slope of fluorescence intensity change over time) ([1]; inhibitor 30 uM)	rate of activity (slope of fluorescence intensity change over time) ([1]; inhibitor 45 uM)	rate of activity (slope of fluorescence intensity change over time) ([1]; inhibitor 67.5 uM)	rate of activity (slope of fluorescence intensity change over time) ([1]; inhibitor 100 uM)	rate of activity (slope of fluorescence intensity change over time) ([1]; inhibitor 150 uM)	increase of IC50 by the F1276L mutation [2] [fold]
O=c1[nH]c(NCc2ccc(Cl)c(Cl)c2)nc2ncn(CCN3CCOCC3)c12 [IBZ, N^2-(3,4-dichlorobenzyl)-7-(2-[1-morpholinyl]ethyl)guanine]	> 225	28.2 and 29.1 and 29.0	29.9 and 30.4	26.3 and 30.0	26.8 and 26.3	27.4 and 27.1	25.1 and 26.5 and 24.8	23.8 and 26.5 and 24.8	24.9 and 23.0 and 25.8	23.2	> 48
O=c1[nH]c(NCc2ccc3c(c2)OC(F)(F)O3)nc2c(F)nn(CCO)c12 [ACX-801, 5-(((2,2-difluorobenzo[d][1,3]dioxol-5-yl)methyl)amino)-3-fluoro-1-(2-hydroxyethyl)-1,6-dihydro-7H-pyrazolo[4,3-d]pyrimidin-7-one]	> 225	29.6 and 27.7 and 30.1	28.5 and 26.4 and 28.8	26.7 and 28.0 and 26.2	25.3 and 26.0 and 26.9	26.3 and 26.7 and 25.0	25.4				> 19
